pIC50: −log10 of the molar value. Read-outs that look alike come from different tables or passages of the source.
What was measured:
PI3Kβ = target: T1, PI3Kβ (Homo sapiens, UniProt P42338); assay: kinobeads assay, PI3K beta (dot blot detection); type: binding; conditions: Table 4, read-out: Inhibition values (IC50) PI3Kb
T1 construct: endogenous in cells; host or cells: Jurkat cells (ATCC TIB-152) lysate, the only lysate described

[1] = system: S6RP serine-240/244 phosphorylation in HEK293T/17 cells; assay: In vitro phospho-S6 cellular assay (pS6RP S240/244); type: cell-based; conditions: Homo sapiens, Table 6, 2 hours, S6RP Ser240/244, read-out: pS6 (phospho-S6 cell assay data, activity level)
How it was run: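 HEK293T/17 cells in DMEM with 2% FCS treated with 8 compound concentrations (0.1% DMSO) for 2 h at 37 °C, then lysed. Phospho-S6RP Ser240/244 or phospho-Akt Ser473 quantified by MesoScale sandwich immunoassay with Sulfo-Tag detection; IC50 from variable-slope sigmoidal fit.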

PI3Kγ = target: T2, PI3Kγ (Homo sapiens, UniProt P48736); assay: kinobeads assay, PI3K gamma (dot blot detection); type: binding; conditions: Table 4, read-out: Inhibition values (IC50) PI3Kg
T2 construct: endogenous in cells; host or cells: Jurkat cells (ATCC TIB-152) lysate, the only lysate described

mTOR = target: T3, mTOR (Homo sapiens, UniProt P42345); assay: mTOR kinobeads assay (dot blot detection); type: binding
T3 construct: endogenous in cells; host or cells: Jurkat cells (ATCC TIB-152, clone E6-1), lysate
How it was run: (§1)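 Jurkat cell lysate (5 mg/ml protein) was incubated with test compounds and kinobeads (immobilized phenylthiazole and phenylmorpholin-chromen ligands) for 2 h in the cold with shaking. Bead-bound kinase was SDS-eluted and quantified by antibody dot blot with infrared detection. IC50 values came from dose-response curves.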

[2] = target: T4, DNA-dependent protein kinase (DNA-PK) (Homo sapiens, UniProt P78527); assay: kinobeads assay, DNA-PK (dot blot detection); type: binding
T4 construct: endogenous in cells; host or cells: Jurkat cells (ATCC TIB-152, clone E6-1), lysate
How it was run: as §1

PI3K delta (PI3Kd) = target: T5, PI3K delta (PI3Kd) (Homo sapiens, UniProt O00329); assay: kinobeads assay, PI3K delta (dot blot detection); type: binding
T5 construct: endogenous in cells; host or cells: Jurkat cells (ATCC TIB-152, clone E6-1), lysate
How it was run: as §1

PI3Kα = target: T6, PI3Kα (Homo sapiens, UniProt P42336); assay: kinobeads assay, PI3K alpha (dot blot detection); type: binding; conditions: Table 4, read-out: Inhibition values (IC50) PI3Ka
T6 construct: endogenous in cells; host or cells: Jurkat cells (ATCC TIB-152) lysate, the only lysate described

[3] = Table 4, read-out: Inhibition values (IC50) mTOR
[4] = Table 4, read-out: Inhibition values (IC50) DNAPK
[5] = Table 4, read-out: Inhibition values (IC50) PI3Kd
[6] = Table 2, Jurkat cell lysate, read-out: Inhibition values (IC50) mTor
[7] = Table 2, Jurkat cell lysate, read-out: Inhibition values (IC50) DNAPK
[8] = Table 2, Jurkat cell lysate, read-out: Inhibition values (IC50) PI3Kd

T2 sequence (P48736 whole entry): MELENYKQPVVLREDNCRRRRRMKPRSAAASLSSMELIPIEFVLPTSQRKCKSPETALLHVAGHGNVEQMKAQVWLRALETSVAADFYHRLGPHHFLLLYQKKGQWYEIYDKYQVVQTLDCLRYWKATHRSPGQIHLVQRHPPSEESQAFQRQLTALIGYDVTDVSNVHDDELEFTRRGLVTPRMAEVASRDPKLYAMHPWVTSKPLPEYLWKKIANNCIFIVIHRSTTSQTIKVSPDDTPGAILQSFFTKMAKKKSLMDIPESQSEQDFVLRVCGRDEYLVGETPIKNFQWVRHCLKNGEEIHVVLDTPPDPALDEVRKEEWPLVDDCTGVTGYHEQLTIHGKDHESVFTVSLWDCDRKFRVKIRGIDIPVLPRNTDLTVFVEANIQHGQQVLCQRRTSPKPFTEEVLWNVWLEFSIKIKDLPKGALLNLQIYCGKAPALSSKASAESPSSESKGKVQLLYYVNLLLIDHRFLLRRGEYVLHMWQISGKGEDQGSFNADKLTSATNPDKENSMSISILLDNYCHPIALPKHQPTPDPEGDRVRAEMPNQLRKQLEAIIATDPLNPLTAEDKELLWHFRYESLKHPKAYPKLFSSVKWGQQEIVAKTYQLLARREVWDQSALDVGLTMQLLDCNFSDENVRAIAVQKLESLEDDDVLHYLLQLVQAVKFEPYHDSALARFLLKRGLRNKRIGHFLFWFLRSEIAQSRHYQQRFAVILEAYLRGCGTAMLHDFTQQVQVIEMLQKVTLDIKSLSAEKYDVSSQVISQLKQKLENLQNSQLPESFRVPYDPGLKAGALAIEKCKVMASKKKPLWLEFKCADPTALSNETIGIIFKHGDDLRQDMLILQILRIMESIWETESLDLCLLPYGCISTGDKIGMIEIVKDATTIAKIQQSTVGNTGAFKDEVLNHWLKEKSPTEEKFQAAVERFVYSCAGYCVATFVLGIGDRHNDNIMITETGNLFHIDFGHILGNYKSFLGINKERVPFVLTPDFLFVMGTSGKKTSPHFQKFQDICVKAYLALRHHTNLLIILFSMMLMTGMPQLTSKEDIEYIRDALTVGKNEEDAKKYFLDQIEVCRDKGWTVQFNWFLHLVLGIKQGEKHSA
T1 sequence (P42338 whole entry): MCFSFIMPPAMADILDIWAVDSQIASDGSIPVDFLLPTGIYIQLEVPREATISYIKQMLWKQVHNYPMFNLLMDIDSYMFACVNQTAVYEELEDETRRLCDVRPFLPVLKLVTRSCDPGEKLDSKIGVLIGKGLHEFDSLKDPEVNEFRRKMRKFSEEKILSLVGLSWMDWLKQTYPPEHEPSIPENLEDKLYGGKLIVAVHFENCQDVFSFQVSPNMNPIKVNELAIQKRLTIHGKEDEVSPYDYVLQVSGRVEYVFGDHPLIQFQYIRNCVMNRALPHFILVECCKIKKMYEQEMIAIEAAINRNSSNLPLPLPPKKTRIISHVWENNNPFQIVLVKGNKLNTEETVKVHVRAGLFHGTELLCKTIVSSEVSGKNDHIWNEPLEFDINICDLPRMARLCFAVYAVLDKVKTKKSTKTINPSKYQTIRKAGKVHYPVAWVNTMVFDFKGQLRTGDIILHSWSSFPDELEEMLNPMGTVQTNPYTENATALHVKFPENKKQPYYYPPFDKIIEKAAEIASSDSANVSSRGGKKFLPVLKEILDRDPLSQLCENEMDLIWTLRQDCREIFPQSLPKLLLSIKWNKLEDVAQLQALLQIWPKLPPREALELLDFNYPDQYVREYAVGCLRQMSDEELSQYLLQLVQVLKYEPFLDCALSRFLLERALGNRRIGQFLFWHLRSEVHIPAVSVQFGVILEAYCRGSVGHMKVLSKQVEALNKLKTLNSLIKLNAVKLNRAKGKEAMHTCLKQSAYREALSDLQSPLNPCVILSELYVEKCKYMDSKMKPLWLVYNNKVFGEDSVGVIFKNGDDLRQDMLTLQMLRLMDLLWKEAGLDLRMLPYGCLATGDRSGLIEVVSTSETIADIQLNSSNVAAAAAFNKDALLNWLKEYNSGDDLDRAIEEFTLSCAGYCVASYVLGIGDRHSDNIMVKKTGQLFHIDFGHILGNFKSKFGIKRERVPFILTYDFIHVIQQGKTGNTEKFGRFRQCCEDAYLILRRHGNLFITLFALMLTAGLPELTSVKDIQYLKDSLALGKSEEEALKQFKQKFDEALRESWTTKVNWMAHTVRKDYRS
T1 sequence (P27986 whole entry partner): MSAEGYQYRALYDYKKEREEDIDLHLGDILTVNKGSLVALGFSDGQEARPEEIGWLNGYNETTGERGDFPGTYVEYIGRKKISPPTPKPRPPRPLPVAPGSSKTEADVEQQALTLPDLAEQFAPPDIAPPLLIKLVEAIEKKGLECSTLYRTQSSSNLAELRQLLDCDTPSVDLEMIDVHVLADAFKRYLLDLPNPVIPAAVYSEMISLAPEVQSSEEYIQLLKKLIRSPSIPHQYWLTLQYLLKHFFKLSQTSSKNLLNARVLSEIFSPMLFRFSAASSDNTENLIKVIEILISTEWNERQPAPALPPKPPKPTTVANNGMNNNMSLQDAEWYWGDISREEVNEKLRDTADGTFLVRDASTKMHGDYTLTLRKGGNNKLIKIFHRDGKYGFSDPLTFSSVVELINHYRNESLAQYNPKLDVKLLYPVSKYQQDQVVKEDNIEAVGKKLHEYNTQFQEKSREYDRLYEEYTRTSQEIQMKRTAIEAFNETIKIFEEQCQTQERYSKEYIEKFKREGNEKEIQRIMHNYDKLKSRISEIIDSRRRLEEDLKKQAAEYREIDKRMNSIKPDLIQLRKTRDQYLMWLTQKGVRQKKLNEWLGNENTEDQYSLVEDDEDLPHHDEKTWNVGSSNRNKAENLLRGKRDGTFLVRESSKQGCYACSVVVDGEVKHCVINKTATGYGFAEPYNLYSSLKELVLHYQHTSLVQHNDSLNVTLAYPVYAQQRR
T5 sequence (O00329 whole entry): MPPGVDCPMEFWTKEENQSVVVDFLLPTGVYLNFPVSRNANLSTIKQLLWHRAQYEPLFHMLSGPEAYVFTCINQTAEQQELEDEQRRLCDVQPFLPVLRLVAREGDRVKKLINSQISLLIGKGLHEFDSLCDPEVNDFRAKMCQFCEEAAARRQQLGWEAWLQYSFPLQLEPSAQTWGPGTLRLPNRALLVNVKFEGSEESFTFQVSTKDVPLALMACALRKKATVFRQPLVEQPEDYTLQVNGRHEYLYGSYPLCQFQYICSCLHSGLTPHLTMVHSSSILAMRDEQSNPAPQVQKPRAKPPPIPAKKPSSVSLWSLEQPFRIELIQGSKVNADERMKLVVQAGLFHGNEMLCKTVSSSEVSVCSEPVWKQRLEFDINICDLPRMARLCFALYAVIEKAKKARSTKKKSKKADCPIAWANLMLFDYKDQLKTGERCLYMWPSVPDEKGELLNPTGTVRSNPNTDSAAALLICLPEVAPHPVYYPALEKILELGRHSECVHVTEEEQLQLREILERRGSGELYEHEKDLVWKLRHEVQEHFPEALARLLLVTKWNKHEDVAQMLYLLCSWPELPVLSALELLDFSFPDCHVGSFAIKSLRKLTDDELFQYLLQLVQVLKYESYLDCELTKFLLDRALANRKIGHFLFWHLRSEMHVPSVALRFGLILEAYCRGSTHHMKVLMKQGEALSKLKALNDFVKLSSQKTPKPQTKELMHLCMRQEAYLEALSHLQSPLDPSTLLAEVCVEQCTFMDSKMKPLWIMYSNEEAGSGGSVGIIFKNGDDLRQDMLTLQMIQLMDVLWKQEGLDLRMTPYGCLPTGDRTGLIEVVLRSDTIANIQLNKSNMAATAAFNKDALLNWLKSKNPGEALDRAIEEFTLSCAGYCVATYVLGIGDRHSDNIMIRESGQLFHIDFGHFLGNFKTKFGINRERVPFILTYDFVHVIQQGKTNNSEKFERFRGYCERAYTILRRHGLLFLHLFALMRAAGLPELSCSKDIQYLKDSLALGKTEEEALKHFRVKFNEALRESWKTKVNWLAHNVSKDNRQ
T5 sequence (P27986 whole entry partner): as the sequence (P27986 whole entry partner) above
T6 sequence (P42336 whole entry): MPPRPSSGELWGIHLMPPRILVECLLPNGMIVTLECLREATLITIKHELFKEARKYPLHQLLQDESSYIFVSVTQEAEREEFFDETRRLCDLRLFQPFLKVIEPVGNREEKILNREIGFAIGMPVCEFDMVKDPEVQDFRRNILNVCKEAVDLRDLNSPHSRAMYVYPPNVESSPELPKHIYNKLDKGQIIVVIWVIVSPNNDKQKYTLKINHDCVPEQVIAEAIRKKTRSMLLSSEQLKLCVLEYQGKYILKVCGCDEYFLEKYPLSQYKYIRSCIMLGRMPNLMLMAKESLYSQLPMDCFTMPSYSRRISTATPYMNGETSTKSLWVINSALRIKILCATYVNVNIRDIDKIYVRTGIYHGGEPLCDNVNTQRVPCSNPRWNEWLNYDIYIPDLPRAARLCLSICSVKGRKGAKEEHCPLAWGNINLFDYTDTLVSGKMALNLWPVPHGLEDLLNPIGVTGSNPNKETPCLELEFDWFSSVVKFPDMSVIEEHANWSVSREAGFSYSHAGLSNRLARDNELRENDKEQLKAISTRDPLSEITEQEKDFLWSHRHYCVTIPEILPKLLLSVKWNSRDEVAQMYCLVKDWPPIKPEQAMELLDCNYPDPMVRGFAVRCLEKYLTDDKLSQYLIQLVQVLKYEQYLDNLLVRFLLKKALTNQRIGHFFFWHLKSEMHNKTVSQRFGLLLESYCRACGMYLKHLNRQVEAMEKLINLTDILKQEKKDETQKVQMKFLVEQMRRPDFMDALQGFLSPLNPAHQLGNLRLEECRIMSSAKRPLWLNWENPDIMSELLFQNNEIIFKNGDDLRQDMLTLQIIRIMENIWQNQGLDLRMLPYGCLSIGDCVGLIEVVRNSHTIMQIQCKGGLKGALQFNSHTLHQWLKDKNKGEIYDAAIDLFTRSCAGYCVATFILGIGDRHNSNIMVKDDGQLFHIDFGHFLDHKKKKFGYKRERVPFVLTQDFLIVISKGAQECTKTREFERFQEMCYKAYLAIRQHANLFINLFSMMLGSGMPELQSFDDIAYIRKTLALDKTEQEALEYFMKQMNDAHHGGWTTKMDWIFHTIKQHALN
T6 sequence (P27986 whole entry partner): as the sequence (P27986 whole entry partner) above

SMILES | pIC50 (PI3Kβ) | pIC50 [1] | pIC50 (PI3Kγ) | pIC50 (mTOR; [3]) | pIC50 [2, 4] | pIC50 (PI3K delta (PI3Kd); [5]) | pIC50 (PI3Kα) | pIC50 (mTOR; [6]) | pIC50 [2, 7] | pIC50 (PI3K delta (PI3Kd); [8])
CCS(=O)(=O)c1ccccc1-c1cc(-c2ccc(NC(=O)NC3CC3)cc2)nc(N2CCOC[C@@H]2C)n1 [Example 87, (S)-1-cyclopropyl-3-(4-(6-(2-(ethylsulfonyl)phenyl)-2-(3-methylmorpholino)pyrimidin-4-yl)phenyl)urea] | ≤ 5.00 | > 7.00 | ≤ 5.00 | 6.00 to 7.00 | ≤ 5.00 | ≤ 5.00 | ≤ 5.00 |  |  | 
CCNC(=O)Nc1ccc(-c2ccnc(N3CCOC[C@@H]3C)n2)cc1 [Example 38, (S)-1-ethyl-3-(4-(2-(3-methylmorpholino)pyrimidin-4-yl)phenyl)urea] | ≤ 5.00 | 6.00 to 7.00 | ≤ 5.00 | 5.00 to 6.00 | ≤ 5.00 | ≤ 5.00 | ≤ 5.00 | 5.00 to 6.00 | ≤ 5.00 | ≤ 5.00
C[C@H]1COCCN1c1ccnc(-c2ccc(NC(=O)NC3CC3)cc2)n1 [Example 35, (S)-1-cyclopropyl-3-(4-(4-(3-methylmorpholino)pyrimidin-2-yl)phenyl)urea] | ≤ 5.00 | 6.00 to 7.00 | ≤ 5.00 | 6.00 to 7.00 | ≤ 5.00 | ≤ 5.00 | ≤ 5.00 | 6.00 to 7.00 | ≤ 5.00 | ≤ 5.00
C[C@H]1COCCN1c1ccnc(-c2ccc(NC(=O)NCCO)cc2)n1 [Example 53, (S)-1-(2-hydroxyethyl)-3-(4-(4-(3-methylmorpholino)pyrimidin-2-yl)phenyl)urea] | ≤ 5.00 | 6.00 to 7.00 | ≤ 5.00 | 6.00 to 7.00 | ≤ 5.00 | ≤ 5.00 | 5.00 to 6.00 | 6.00 to 7.00 | ≤ 5.00 | ≤ 5.00
CCNC(=O)Nc1ccc(-c2cc(-c3cncc(S(C)(=O)=O)c3)nc(N3CCOC[C@@H]3C)n2)cc1 [Example 15, (S)-1-ethyl-3-(4-(2-(3-methylmorpholino)-6-(5-(methylsulfonyl)pyridin-3-yl)pyrimidin-4-yl)phenyl)urea] | ≤ 5.00 | 6.00 to 7.00 | ≤ 5.00 | 5.00 to 6.00 | ≤ 5.00 | ≤ 5.00 | ≤ 5.00 | 5.00 to 6.00 | ≤ 5.00 | ≤ 5.00
C[C@@H](O)CNC(=O)Nc1ccc(-c2cc(-c3cc(F)ccc3S(C)(=O)=O)nc(N3CCOC[C@@H]3C)n2)cc1 [Example 82] | ≤ 5.00 | > 7.00 | ≤ 5.00 | 5.00 to 6.00 | ≤ 5.00 | ≤ 5.00 | ≤ 5.00 |  |  | 
C[C@H]1COCCN1c1cc(-c2cncc(F)c2)nc(-c2ccc(NC(=O)NCCF)cc2F)n1 [Example 67, (S)-1-(3-fluoro-4-(4-(5-fluoropyridin-3-yl)-6-(3-methylmorpholino)pyrimidin-2-yl)phenyl)-3-(2-fluoroethyl)urea] | ≤ 5.00 | 6.00 to 7.00 | ≤ 5.00 | 5.00 to 6.00 | ≤ 5.00 | ≤ 5.00 | ≤ 5.00 | 5.00 to 6.00 | ≤ 5.00 | ≤ 5.00
C[C@H]1COCCN1c1ccnc(-c2ccc(NC(=O)NCCF)cc2)n1 [Example 55, (S)-1-(2-fluoroethyl)-3-(4-(4-(3-methylmorpholino)pyrimidin-2-yl)phenyl)urea] | ≤ 5.00 | 6.00 to 7.00 | ≤ 5.00 | 6.00 to 7.00 | ≤ 5.00 | ≤ 5.00 | ≤ 5.00 | 6.00 to 7.00 | ≤ 5.00 | ≤ 5.00
C[C@H]1COCCN1c1cc(-c2cncc(F)c2)nc(-c2ccc(NC(=O)NCCO)cc2F)n1 [Example 65, (S)-1-(3-fluoro-4-(4-(5-fluoropyridin-3-yl)-6-(3-methylmorpholino)pyrimidin-2-yl)phenyl)-3-(2-hydroxyethyl)urea] | ≤ 5.00 | 6.00 to 7.00 | ≤ 5.00 | 6.00 to 7.00 | ≤ 5.00 | ≤ 5.00 | ≤ 5.00 | 6.00 to 7.00 | ≤ 5.00 | ≤ 5.00

From US9249129B2, “Morpholino substituted urea derivatives as mTOR inhibitors” (CELLZOME LIMITED, priority 2010, dated 2016)
